Source: patent EP1143981B1, “USE OF N-GLYCOLNEURAMINIC ACID AND ITS DERIVATIVES FOR THE MANUFACTURE OF A MEDICAMENT FOR THE TREATMENT OF HIV INFECTIONS” (Glukor, Inc., priority 1998, dated 2000)

Experiments:
Type in all cases: cell-based
[1] = tested on: HIV-1III B; test: HIV-1 P24 output, test solution mixed with virus, PBMCs infected overnight; settings: day 9
Protocol: Example 4-Specificity of Inhibition: Research grade purified d-Galactose (CAT# g404, lot 117H00431, FW 180.2, Sigma Chemical Co., St. Louis, MO) was dissolved in saline at a concentration of 5mg/ml. The solution was allowed to stand at room temperature for 15 minutes and mixed by vortex until the galactose was completely dissolved. The galactose solution was divided into two equal aliquots. Stabilizing solution (0.1 ml) was added to one aliquot, then vortexed and incubated at room temperature for 30 minutes. After mixing again, the mixture was centrifuged at 1500g for 30 minutes and the supernatant was filtered through a 0.2µm filter and transferred to a sterile 15 ml tube. The solution was sterilized by gamma radiation (2.5 mega RADs) with 15 minutes exposure. The aliquot without the stabilizing solution was labeled "1A" and the aliquot containing the stabilized solution was labeled "1B". […] Each of the test solutions were diluted 1:20 1:40,1:80, and 1:160 in saline. Control solutions were water.
One ml of each of the dilutions of the test solution or control was mixed with an equal volume of HIV-1III B (~50 TCID50 /2x10^5 cells) to infect activated human PBMCs overnight at 37°C (3x10^5 cells/dilution). HIV-1III B is a laboratory-adapted strain. The cells then were washed and placed in culture media containing the indicated dilution of the test solution in triplicate wells (1x10^3 cells per well, ½ medium changes with media containing the indicated dilutions of test solution were made at ~3 day intervals). The conditioned media were tested for HIV-1 P24 output on day 9 using the DuPont P24 assay kit. The control was infected PBMCs in the absence of test solutions. Results are shown in Table 9 and are measured as the Inhibition% of the control. […]

[2] = tested on: HIV-1 IIIB; test: HIV-1 P24 output, repeat with stored solutions, 3 hours infection; settings: day 6
Protocol: The test was repeated using test solutions stored at 4°C. In this experiment, the dilutions were mixed with HIV-1 IIIB virus at the time of infecting the activated human PBMCs for 3 hours. The cells then were washed and incubated in triplicate wells (1x10^3 cells/well) in the presence of the indicated dilution of the test solution. One half media changes included the test solution dilutions. Conditioned media were tested for P24 output by the antigen capture assay on day 6. Results are shown in Table 10 and are presented as the inhibition % of control (no carbohydrate added).

[3] = tested on: HIV-1 IIIB; test: HIV-1 P24 output, test solutions added post infection
Protocol: In addition, a similar experiment was performed, except that test solutions were added post infection, at the time of plating into the triplicate wells.

[4] = tested on: HIV-1III B; test: HIV-1 P24 output, test solution mixed with virus, PBMCs infected overnight; settings: Dilution 1:10 of 5mg/ml solution, day 9
[5] = tested on: X4 strain LAI/IIIB; test: RT activity in infected PBMCs over 20 days post-infection
Protocol: Reverse Transcriptase Activity Assay: A microtiter based reverse transcriptase (RT) reaction was utilized as described by Buckheit et al., (1991), AIDS Research and Human Retroviruses, 7:295-302. Tritiated thymidine triphosphate (^3H-TTP) was suspended in distilled H2O at 5 Ci/mL. Poly rA and oligo dT were prepared as a stock solution which was kept at -20°C. RT reaction buffer was prepared fresh on a daily basis and contained 125 µL 1M EGTA, 125 µL dH2O, 110 µL 10% SDS, 50 µL 1M Tris (pH 7.4), 50 µL 1M DTT, and 40 µL 1M MgCl2. These three solutions were mixed together in a ratio of 2 parts ^3H-TTP, 1 part poly rA:oligo dT, and 1 part reaction buffer. Ten microliters of this reaction mixture were placed in a round bottom microtiter plate and 15 µL of virus containing supernatant were added and mixed. The plate was incubated at 37°C in a water bath with a solid support to prevent submersion of the plate and incubated for 60 minutes. After the incubation period, the reaction volume was spotted onto pieces of DE81 paper, washed 5 times for 5 minutes each in a 5% sodium phosphate buffer, 2 times for 1 minute each in distilled water, 2 times for 1 minute each in 70% ethanol, and then dried. Opti-Fluor-O (Packard) was added to each sample and incorporated radioactivity was quantified utilizing a Wallac 1450 MicroBeta Plus liquid scintillation counter. Plates were screened with tetrazolium dye staining as described above.
PBMCs were treated with dilutions of LUKOR of 1:4, 1:20, 1:100, 1:500, or 1:2500, or concentrations ofN-glycolylneuraminic acid or N-acetylneuraminic acid of 0.4, 1.2, 3.6, 11, or 33µg/ml. No carbohydrates were added to the control sample. RT activity was determined at 3, 6, 9,13, 17, and 20 days post-infection (PI) with X4 strain LAI/IIIB.

[6] = Dilution 1:10, solutions stored at 4°C
[7] = Dilution 1:20, solutions stored at 4°C
[8] = Dilution 1:40, solutions stored at 4°C
[9] = Dilution 1:80, solutions stored at 4°C
[10] = Dilution 1:160, solutions stored at 4°C
[11] = Dilution 1:10, added post infection
[12] = Dilution 1:20, added post infection
[13] = Dilution 1:20, repeat with further dilutions (Table 12)
[14] = Dilution 1:40, added post infection
[15] = Dilution 1:80, added post infection
[16] = Dilution 1:100, repeat with further dilutions (Table 12)
[17] = Dilution 1:160, added post infection
[18] = Dilution 1:1000, repeat with further dilutions (Table 12)

With `O=C(CO)N[C@H]1[C@H]([C@H](O)[C@H](O)CO)OC(O)(C(=O)O)C[C@@H]1O` (single isomer, unassigned) [2B, N-glycolylneuraminic acid] as the molecule, how does the “P24 output, Inhibition% of the control” value ([1]; Dilution 1:20) read?
Its value is 81%.

What about the “P24 output, Inhibition% of the control” value ([1]; Dilution 1:40) of the same molecule?
The value was 61%.

And the “P24 output, Inhibition% of the control” value ([1]; Dilution 1:80)?
Its value is 37%.

What about the “P24 output, Inhibition% of the control” value ([1]; Dilution 1:160) of the same molecule?
Its value is 16%.

What about the “Inhibition % of Control” value [2, 6] of the same molecule?
The value was 88%.

What about the “Inhibition % of Control” value [2, 7] of the same molecule?
The value was 74%.

What about the “Inhibition % of Control” value [2, 8] of the same molecule?
The value was 59%.

And the “Inhibition % of Control” value [2, 9]?
Its value is 44%.

What about the “Inhibition % of Control” value [2, 10] of the same molecule?
Its value is 13%.

And the “Inhibition % of Control” value [3, 11]?
The value was 82%.

What about the “Inhibition % of Control” value [3, 12] of the same molecule?
The value was 70%.

And the “Inhibition % of Control” value [3, 13]?
The value was 78%.

And the “Inhibition % of Control” value [3, 14]?
The value was 61%.

And the “Inhibition % of Control” value [3, 15]?
The value was 26%.

What about the “Inhibition % of Control” value [3, 16] of the same molecule?
The value was 42%.

What about the “Inhibition % of Control” value [3, 17] of the same molecule?
The value was 15%.

What about the “Inhibition % of Control” value [3, 18] of the same molecule?
The value was 1%.

What about the “P24 output, Inhibition% of the control” value [4] of the same molecule?
The value was 93%.

How did the “RT Activity” value ([5]; 0.4 µg/ml, 3 days PI) turn out when `CC(=O)N[C@H]1[C@H]([C@H](O)[C@H](O)CO)OC(O)(C(=O)O)C[C@@H]1O` (some centres unmarked) [N-acetylneuraminic acid, reference compound] was run?
Its value is 89.

What about the “RT Activity” value ([5]; 0.4 µg/ml, 6 days PI) of the same molecule?
The value was 129.

And the “RT Activity” value ([5]; 0.4 µg/ml, 9 days PI)?
The value was 878.

What about the “RT Activity” value ([5]; 0.4 µg/ml, 13 days PI) of the same molecule?
Its value is 2703.

What about the “RT Activity” value ([5]; 0.4 µg/ml, 17 days PI) of the same molecule?
Its value is 1615.

And the “RT Activity” value ([5]; 0.4 µg/ml, 20 days PI)?
Its value is 812.

And the “RT Activity” value ([5]; 3.6 µg/ml, 3 days PI)?
The value was 83.

And the “RT Activity” value ([5]; 3.6 µg/ml, 6 days PI)?
Its value is 508.

And the “RT Activity” value ([5]; 3.6 µg/ml, 9 days PI)?
Its value is 1902.

And the “RT Activity” value ([5]; 3.6 µg/ml, 13 days PI)?
The value was 1892.

And the “RT Activity” value ([5]; 3.6 µg/ml, 17 days PI)?
Its value is 1260.

And the “RT Activity” value ([5]; 3.6 µg/ml, 20 days PI)?
The value was 836.

What about the “RT Activity” value ([5]; 11 µg/ml, 3 days PI) of the same molecule?
Its value is 43.

What about the “RT Activity” value ([5]; 11 µg/ml, 6 days PI) of the same molecule?
The value was 75.

What about the “RT Activity” value ([5]; 11 µg/ml, 9 days PI) of the same molecule?
The value was 799.

What about the “RT Activity” value ([5]; 11 µg/ml, 13 days PI) of the same molecule?
The value was 2047.

And the “RT Activity” value ([5]; 11 µg/ml, 17 days PI)?
Its value is 2990.

And the “RT Activity” value ([5]; 11 µg/ml, 20 days PI)?
Its value is 1171.

And the “RT Activity” value ([5]; 33 µg/ml, 3 days PI)?
Its value is 36.

What about the “RT Activity” value ([5]; 33 µg/ml, 6 days PI) of the same molecule?
Its value is 53.

And the “RT Activity” value ([5]; 33 µg/ml, 9 days PI)?
The value was 165.

And the “RT Activity” value ([5]; 33 µg/ml, 13 days PI)?
The value was 442.

What about the “RT Activity” value ([5]; 33 µg/ml, 17 days PI) of the same molecule?
Its value is 1273.

What about the “RT Activity” value ([5]; 33 µg/ml, 20 days PI) of the same molecule?
Its value is 1526.

And the “RT activity in treated cells (summary in words)” value ([5]; all dilutions/concentrations, 3-20 days PI)?
Its value is “decreased RT activity was observed only with high concentrations”.

How did the “P24 output, Inhibition% of the control” value ([1]; Dilution 1:20) turn out when `O=C(CO)N[C@H]1[C@H]([C@H](O)[C@H](O)CO)OC(O)(C(=O)O)C[C@@H]1O` (single isomer, unassigned) [2A, N-glycolylneuraminic acid] was run?
The value was 78%.

And the “P24 output, Inhibition% of the control” value ([1]; Dilution 1:40)?
Its value is 66%.

What about the “Inhibition % of Control” value [2, 6] of the same molecule?
Its value is 96%.

And the “Inhibition % of Control” value [2, 7]?
Its value is 78%.

And the “Inhibition % of Control” value [2, 8]?
Its value is 62%.

And the “Inhibition % of Control” value [2, 9]?
Its value is 47%.

What about the “Inhibition % of Control” value [2, 10] of the same molecule?
The value was 17%.

And the “Inhibition % of Control” value [3, 11]?
The value was 95%.

What about the “Inhibition % of Control” value [3, 12] of the same molecule?
Its value is 75%.

What about the “Inhibition % of Control” value [3, 13] of the same molecule?
Its value is 88%.

What about the “Inhibition % of Control” value [3, 14] of the same molecule?
Its value is 66%.

What about the “Inhibition % of Control” value [3, 15] of the same molecule?
The value was 30%.

What about the “Inhibition % of Control” value [3, 16] of the same molecule?
The value was 55%.

What about the “Inhibition % of Control” value [3, 17] of the same molecule?
The value was 16%.

And the “Inhibition % of Control” value [3, 18]?
The value was 7%.

What about the inhibition at 5000 µg/mL (stock) ([4]; Human immunodeficiency virus 1, PBMC, 216 h, read-out: P24 output, Inhibition% of the control) of the same molecule?
Its inhibition at 5000 µg/mL (stock) is 94%.

What does the source list for d-Galactose [1A]?
P24 output, Inhibition% of the control ([1]; Dilution 1:20): 5%; P24 output, Inhibition% of the control ([1]; Dilution 1:40): 4%; P24 output, Inhibition% of the control ([1]; Dilution 1:80): 2%; P24 output, Inhibition% of the control ([1]; Dilution 1:160): 2%; P24 output, Inhibition% of the control [4]: 4%

d-Galactose [1B] was tested. Which “P24 output, Inhibition% of the control” value ([1]; Dilution 1:20) did it give?
The value was 5%.

And the “P24 output, Inhibition% of the control” value ([1]; Dilution 1:40)?
Its value is 3%.

What about the “P24 output, Inhibition% of the control” value ([1]; Dilution 1:80) of the same molecule?
The value was 4%.

And the “P24 output, Inhibition% of the control” value ([1]; Dilution 1:160)?
The value was 2%.

What about the “P24 output, Inhibition% of the control” value [4] of the same molecule?
The value was 7%.

Which results are given for `OC[C@H]1O[C@H](O[C@H]2[C@@H](O)[C@@H](CO)OC(O)[C@@H]2O)[C@H](O)[C@@H](O)[C@H]1O` (stereo partly drawn) [3AA, galactose-α 1,3-galactose]?
P24 output, Inhibition% of the control ([1]; Dilution 1:20): 3.6%; P24 output, Inhibition% of the control ([1]; Dilution 1:40): 2.2%; P24 output, Inhibition% of the control ([1]; Dilution 1:80): 1.4%; P24 output, Inhibition% of the control ([1]; Dilution 1:160): 0.4%; P24 output, Inhibition% of the control [4]: 4.3%
